Values joined by “and” are separate entries in the source; they are usually repeats but may differ in a detail not shown here. Equal entries are not always repeated.
Assays:
HeLa = conditions: bulk resorufin, single well, 28.5 h, 10 µM, Bulk resorufin fluorescence
in vitro = conditions: human, hela cells, % viability

Row | Structure (SMILES) | % viability (HeLa) | viability at 28.5 h, 10 µM (in vitro)
1 | COc1ccc(NC(=O)Nc2ccncc2)c(OC)c1 [CBK266973] | 93.8% | 95.5%
2 | N#CCCCN1CCN(c2nccnc2OC2CCCCC2)CC1 [CBK082841T] | 107% | 87.4%
3 | CCCC(=O)N1CCC[C@@H](Cn2nc(-c3cccs3)ccc2=O)C1 [CBK282245] | 98% | 88.5%
4 | CC(C)Nc1cc(Sc2ccc(Cl)c(Cl)c2)ncn1 [CBK089500] | 83.3% | 90.8%
5 | NCCCOc1nc2ccccc2nc1C(F)(F)F [CBK115295] | 109% | 96.8%
6 | CCCCn1cc(CN2CC3CCCN3C[C@H]2C)c(C)n1 (stereo partly drawn) [CBK285433] | 98.7% | 92.9%
7 | C[C@H](Cn1c(=O)oc2ccccc21)NC(=O)CC1c2ccccc2Oc2ccccc21 [CBK286201] | 96.8% | 90.1%
8 | O=C(NCCc1ccccc1)[C@H]1C=CCN1C(=O)c1ccccc1F [CBK285471] | 104% | 94%
9 | COc1cc2[nH]c(=S)n(C3CCCC3)c(=O)c2cc1OC [CBK288518] | 93.5% | 84.9%
10 | CCn1cc(C(=O)NN)c(=O)c2cc(F)c(N3CCOCC3)cc21 [CBK263050] | 107% | 99.9%
11 | COc1cccc(CN2CC3CCCN3C[C@H]2C)c1 (stereo partly drawn) [CBK285442] | 105% | 113%
12 | CCC(Sc1nc(C)c(Cc2ccccc2)c(=O)[nH]1)C(=O)O (stereo not drawn) [CBK270058] | 91.7% | 91.2%
13 | CCCn1ncc(CN2C[C@@H]3CCCN3C[C@@H]2CCSC)c1C [CBK285426] | 107% | 104%
14 | CCCC(=O)NCc1ccc(OC2CCNCC2)cc1 [CBK024489T] | 112% | 95.6%
15 | O=c1[nH]nc2ccc(S(=O)(=O)N3CCCC3)cn12 [CBK288033] | 91.1% | 80.5%
16 | CCCC(=O)Nc1c(C)nn(C)c1N1CCNCC1 [CBK045924T] | 102% | 87.2%
17 | c1cncc(COc2cncc(OC3CCN(CCc4c[nH]c5ccccc45)C3)n2)c1 (stereo not drawn) [CBK084471] | 113% | 111%
18 | Cc1cc(C(NC(C)(C)C)C(=O)O)cc(C)c1O (stereo not drawn) [CBK027143] | 90.9% | 86.6%
19 | C[C@@H]1CN2CCCC2CN1Cc1cccc2cccnc12 (stereo partly drawn) [CBK284551] | 87.8% | 82.4%
20 | C[C@@H]1CN2CCCC2CN1CC1CC=CCC1 (stereo partly drawn) [CBK285441] | 99.9% | 99.1%
21 | O=C(O)c1ccc(CN(c2ccccc2)S(=O)(=O)c2ccccc2)cc1 [CBK262406] | 82.8% | 93.3%
22 | Cc1cc(-c2nccnc2NCCCN2CCCC2=O)cc(C)c1O [CBK037632] | 98% | 94.1%
23 | COc1ccccc1CN1CC2CCCN2C[C@H]1C (stereo partly drawn) [CBK285409] | 106% | 90.6%
24 | O=C(NCCN1CCCC1)c1cc2cc(F)ccc2[nH]1 [CBK107278] | 105% | 106%
25 | N#Cc1cccc(-c2ccc3c(c2)COC(C2CCN(C(=O)OCc4ccccc4)CC2)O3)c1 (stereo not drawn) [CBK144640] | 93% | 101%
26 | CC(C)(C)c1nc(CN2CCOCC2)ccc1O [CBK026614C] | 111% | 112%
27 | C=Cn1ncc(CN2C[C@@H]3CCCN3C[C@H]2CCSC)c1C [CBK285440] | 101% | 99.4%

Row | Structure (SMILES) | % viability (HeLa) | viability at 28.5 h, 10 µM (in vitro)
28 | O=C1CCCc2c1nc(-c1ccccc1Cl)n2O [CBK271948] | 82.2% | 89.5%
29 | c1cnc2c(c1)cc([C@@H]1CCCO1)n2CCN1CCCCC1 [CBK282273] | 109% | 101%
30 | Nc1ccc2cc(-c3ccccc3)cnc2n1 [CBK061881] | 94.9% | 81.7%
31 | COC(=O)c1ccc(-c2nc3nnc(C)n3[nH]2)cc1 [CBK027508] | 87.7% | 103%
32 | CCCNC(=O)NS(=O)(=O)c1ccc(C)cc1 [CBK288527] | 90.2% | 100%
33 | COc1ccc(CN2CC3CCCN3C[C@H]2C)cc1 (stereo partly drawn) [CBK285412] | 103% | 111%
34 | CCn1c(C)nc2cc(C(=O)N3N=CCC3(O)C(F)(F)F)ccc21 (stereo not drawn) [CBK019301] | 108% | 105%
35 | C[C@@H]1CN2CCCC2CN1Cc1ccc(Br)o1 (stereo partly drawn) [CBK285410] | 101% | 99.7%
36 | COc1ccc(NC(=O)[C@@H]2C=CCN2C(=O)c2ccco2)cc1 [CBK284292] | 77.2% | 88.5%
37 | Cc1nn(CC(C)C(=O)O)c(C)c1Br (stereo not drawn) [CBK269756] | 86.7% | 92.4%
38 | CCC(=O)N1CCC[C@H](Cn2nc(-c3cccs3)ccc2=O)C1 [CBK283046] | 100% | 95.3%
39 | Oc1ccccc1-c1cc(-c2cc3ccccc3o2)no1 [CBK019513] | 117% | 113%
40 | C[C@H]1CN2CCCC2CN1Cc1ccccc1F (stereo partly drawn) [CBK285450] | 103% | 96.5%
41 | CCN(Cc1ccccc1)C(=O)NCc1cccc(C(F)(F)F)c1 [CBK155216] | 96.1% | 110%
42 | O=C(O)CCCNc1ccc(S(=O)(=O)N2CCCCC2)cc1 [CBK261001] | 90.5% | 96.7%
43 | CSCC[C@@H]1CN2CCC[C@H]2CN1Cc1cn(C)nc1C [CBK285462] | 107% | 95.5%
44 | CC(C)Nc1nc(-c2cccnc2)nc2ccccc12 [CBK073006] | 94.6% and 102% | 91.1%
45 | CCOC(=O)CSc1nc2ccccc2nc1NC(C)C [CBK107166] | 111% | 101%
46 | CS(=O)(=O)Nc1cc2ccccc2c(-c2ccc(S(C)(=O)=O)cc2)n1 [CBK085756] | 107% | 95.6%
47 | O=C1CCC(=O)N1CCOc1nccnc1OC1CCN(Cc2cccnc2)CC1 [CBK084339] | 89.7% | 107%
48 | CC(C)(CC(=O)O)CC(=O)Nc1cccc(CCc2ccncc2)c1 [CBK286989] | 84.8% | 99.3%
49 | CC[C@@H](Cn1ncc2ccccc2c1=O)NC(=O)C1CC1 [CBK282385] | 91.3% | 88.3%
50 | CCC1CCCCN1C(=O)c1ccc(C(=O)NC)cc1 (stereo not drawn) [CBK083371] | 103% | 95.6%
51 | O=C(O)C1Cc2c([nH]c3ccccc23)C(c2ccc(Cl)cc2Cl)N1 (stereo not drawn) [CBK115930] | 96.2% | 88.5%
52 | O=C(NC1CCCCC1)[C@H]1C=CCN1C(=O)c1ccc(F)cc1 [CBK282324] | 86.4% | 93.9%
53 | Cc1cc2c(cc1C)NC(CC(=O)Nc1ccc(Cl)cc1)C(=O)N2 (stereo not drawn) [CBK263245] | 90.5% | 83.4%
54 | COc1cccc2sc(NC(=O)c3ccc4c(c3)OCCO4)nc12 [CBK149285] | 92.1% | 99.1%
